Measurements taken from the NIST ThermoML archive (doi:10.1021/je700260f).

Conditions: 303.15 K, Liquid, Vibrating tube method

FC(C(F)(F)F)C(F)(F)F [1,1,1,2,3,3,3-heptafluoropropane]
Conditions | mass density [kg/m3]
19200 kPa | 1476.1
19235 kPa | 1476.3
19270 kPa | 1476.4
19296 kPa | 1476.6
19327 kPa | 1476.6
19353 kPa | 1476.7
19385 kPa | 1476.8
19420 kPa | 1477
19455 kPa | 1477.2
19490 kPa | 1477.3
19517 kPa | 1477.4
19553 kPa | 1477.5
19592 kPa | 1477.7
19624 kPa | 1477.9
19655 kPa | 1478.1
19691 kPa | 1478.1
19717 kPa | 1478.1
19758 kPa | 1478.3
19785 kPa | 1478.6
19828 kPa | 1478.6
19860 kPa | 1478.8
19891 kPa | 1478.9
19918 kPa | 1479
19949 kPa | 1479.2
19981 kPa | 1479.4
20016 kPa | 1479.4
20044 kPa | 1479.6
20076 kPa | 1479.9
20107 kPa | 1479.9
20152 kPa | 1480
20179 kPa | 1480.1
20216 kPa | 1480.2
20244 kPa | 1480.4
20285 kPa | 1480.6
20325 kPa | 1480.6
20357 kPa | 1480.8
20394 kPa | 1481
20436 kPa | 1481.2
20463 kPa | 1481.3
20491 kPa | 1481.3
20539 kPa | 1481.6
20570 kPa | 1481.7
20597 kPa | 1481.8
20637 kPa | 1481.9
20668 kPa | 1482
20701 kPa | 1482.2
20728 kPa | 1482.4
20769 kPa | 1482.6
20802 kPa | 1482.7
20880 kPa | 1482.9
21049 kPa | 1483.6
21082 kPa | 1483.8
21120 kPa | 1483.8
21152 kPa | 1484.1
21193 kPa | 1484.2
21217 kPa | 1484.4
21250 kPa | 1484.5
21278 kPa | 1484.6
21322 kPa | 1484.7
21360 kPa | 1484.9
21388 kPa | 1485
21421 kPa | 1485.1
21458 kPa | 1485.3
21490 kPa | 1485.4
21523 kPa | 1485.5
21556 kPa | 1485.5
21593 kPa | 1485.8
21626 kPa | 1486
22323 kPa | 1488.6
22447 kPa | 1489.1
22485 kPa | 1489.3
22514 kPa | 1489.4
22548 kPa | 1489.4
22580 kPa | 1489.5
22613 kPa | 1489.9
22643 kPa | 1489.7
22673 kPa | 1490
22707 kPa | 1490.1
22733 kPa | 1490.2
22771 kPa | 1490.3
22801 kPa | 1490.4
22828 kPa | 1490.5
22863 kPa | 1490.7
22899 kPa | 1490.8
22934 kPa | 1490.9
22959 kPa | 1491.1
22997 kPa | 1491.3
23032 kPa | 1491.4
23062 kPa | 1491.6
23102 kPa | 1491.5
23128 kPa | 1491.8
23159 kPa | 1491.7
23186 kPa | 1491.9
23217 kPa | 1492
23249 kPa | 1492.1
23281 kPa | 1492.3
23307 kPa | 1492.3
23342 kPa | 1492.6
23364 kPa | 1492.6
23395 kPa | 1492.8
23431 kPa | 1492.8
23462 kPa | 1492.9
23497 kPa | 1493
